Test results from patent US6392049B1, “Process for preparing 2,4-dihydroxypyridine and 2,4-dihydroxy-3-nitropyridine” (Aventis Pharmaceuticals Inc., priority 1996, dated 2002).
Read-outs that look alike come from different tables or passages of the source.

Key:
[1] = system: swine coronary arteries; assay: In vitro vasorelaxation in isolated swine coronary arteries; type: cell-based
Procedure: Swine coronary arteries are obtained from a local slaughter house, dissected carefully and cleaned of fat, blood and adhering tissue. Rings approximately 2-3 mm wide are cut and transferred to water-jacketed tissue baths (10 mL) filled with warm (37° C.), oxygenated (O2/CO2:95%/5%) Krebs-Henseleit buffer and mounted on L-shaped hooks between stainless steel rods and a force transducer. […] PGF2a, before being exposed to 3 μM PGF2a.

[2] = system: spontaneously hypertensive rat (SHR); assay: Oral antihypertensive activity in conscious spontaneously hypertensive rat (SHR); type: in vivo; settings: D signifies decrease, I signifies increase
Procedure: The oral antihypertensive activity of compounds of Formula I are examined in conscious spontaneously hypertensive rats. The rats are anesthetized with sodium phenobarbitol (50 mg/kg i.p.). A telemetry transducer is implanted into the rats abdomen via midline incision. The cannula of the transducer is inserted into the abdominal aorta to allow direct measurement of arterial pressure in the conscious SHR. The transducer is secured to the abdominal wall. After recovery from surgery (minimum of seven days), the SHR are placed on a receiver plate and the transducer/transmitter is activated. Systolic, diastolic and mean arterial pressure and heart rate are recorded for 1.5 hours in the unrestrained conscious rat to establish a stable baseline. Each rat then received a single dose of the compound of Formula I to be tested, or vehicle, and changes in arterial pressure and heart rate are monitored for 20 hours and recorded.

[3] = system: normotensive anesthetized rat; assay: Mean arterial blood pressure and heart rate in normotensive anesthetized rat; type: in vivo; settings: for Anesthetized Rat HR/ED25: intravenous dose lowering heart rate by 25%; for Anesthetized Rat MAP/ED25: intravenous dose lowering mean arterial pressure by 25%
Procedure: Normotensive rats are anesthetized with sodium pentobarbital (50 mg/kg, i.p.) and placed on a heated surgical table. Cannulas are inserted into the femoral artery and veined to allow the measurement of arterial pressure and to facilitate the intravenous administration of test compounds. The animals are allowed to equilibrate for 10 minutes after surgery. Mean arterial pressure is continuously measured and recorded and heart rate is monitored using the arterial pressure pulse to trigger a cardiotachometer. After baseline parameters are established and recorded, increasing doses (1, 3, 10, 30, 100, 300 and 1000 μg/kg) of the compound of Formula I to be tested are administered intravenously. Maximal changes in the cardiovascular parameters are observed after each dose of the adenosine agonist. Only one compound is administered per rat.

[4] = target: T1, A2 receptor (Rattus norvegicus, UniProt P30543); assay: A2 adenosine receptor binding, displacement of 3H-CGS 21680, rat brain striatum membranes; settings: 3H-CGS 21680 displacement, rat brain striatum membranes, 25° C., 90 minutes; read-out: Adenosine Receptor Binding Activity/IC50 (nM) A2
T1 construct: using membranes from rat brain striatum; from tissue; host or cells: rat brain striatum membranes
Procedure: Non-specific binding is assessed in the presence of 20 μm 2-chloroadenosine.
(§1) The assays are run in glass test tubes in duplicate at 25° C. Once the membranes are added, the tubes are vortexed and incubated at 25° C. for 60 minutes (A1 assay) or 90 minutes (A2 assay) on a rotary shaker. The assay tubes are vortexed halfway through the incubation and again near the end. The assays are terminated by rapid filtration through 2.4 cm GF/B filters using a Brandel Cell Harvestor. The test tubes are washed three times with cold 50 mM tris-HCl (pH 7.7 or 7.4), with filtration being completed within 15 seconds. The damp filter circles are placed in glass scintillation vials filled with 10 ml of Aquasol II (New England Nuclear). The vials are allowed to shake overnight on a rotary shaker and are placed into a liquid scintillation analyzer for two minute counts. IC50 values for receptor binding, i.e. the concentration at which a compound of Formula I displaced the radiolabeled standard, are obtained using a curve-fitting computer program (RS/1, Bolt, Beranek and Newman, Boston, Mass.).

[5] = target: T2, A1 receptor (Rattus norvegicus, UniProt P25099); assay: A1 adenosine receptor binding, displacement of 3H-CHA, whole rat brain membranes; settings: 3H-CHA displacement, 25° C., 60 minutes
T2 construct: using a membrane preparation of whole rat brain; from tissue; host or cells: whole rat brain membranes
T2 sequence (P25099 1-326): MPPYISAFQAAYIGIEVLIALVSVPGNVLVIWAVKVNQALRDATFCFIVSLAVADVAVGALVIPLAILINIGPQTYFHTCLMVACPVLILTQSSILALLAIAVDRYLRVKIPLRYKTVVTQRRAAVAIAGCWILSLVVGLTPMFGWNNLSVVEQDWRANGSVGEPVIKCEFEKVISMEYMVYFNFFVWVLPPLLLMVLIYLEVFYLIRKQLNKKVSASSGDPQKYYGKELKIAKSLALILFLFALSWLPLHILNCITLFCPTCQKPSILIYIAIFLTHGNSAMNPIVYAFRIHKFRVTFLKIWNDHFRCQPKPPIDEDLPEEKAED
Procedure: Non-specific binding is assessed in the presence of 1 mM theophylline.
as §1

[6] = system: rat adipocytes; assay: Antilipolytic activity in rat adipocytes (in vitro lipolysis assay, glycerol production); type: cell-based; settings: rat adipocytes, norepinephrine-stimulated; for EC50: read-out: EC50 (50% inhibition of glycerol production)
Procedure: Adipose tissue is removed from anesthetized rats and rinsed twice in incubation medium (2.09 g sodium bicarbonate and 0.04 g EDTA, disodium salt, in 1 L Krebs buffer). Each rat (300-350g) yields approximately 4 ml of adipose tissue. The adipose tissue (35 mL) is cut into small pieces with scissors and washed with incubation medium (50 mL). The mixture is poured into the barrel of a 50 mL syringe to which is attached a short piece of clamped tubing instead of a needle. The aqueous phase is allowed to drain. A second wash with incubation medium is passed through the syringe. The tissue is added to 50 mL of collagenase solution (collagenase (90 mg), bovine serum albumin (BSA) (500 mg), and 0.1 M calcium chloride solution (1 mL), in incubation medium (50 mL)) in a 1 L bottle. The mixture is shaken in an environmental at 37 ° C. for about 60 minutes under an atmosphere of 95% oxygen/5% carbon dioxide to effect digestion of the tissue. The dispersed cells are poured through 2 layers of cheese cloth into a 100 mL plastic beaker. The undigested clumps in the cloth are rinsed once with incubation medium (20 mL). The cells in the beaker are centrifuged in 2 plastic tubes for 30 seconds at room temperature at 300 rpm. The aqueous phase is aspirated from beneath the loosely packed layer of floating fat cells and discarded. The adipocytes are gently poured into a 250 mL plastic beaker containing 100 mL of rinse solution (1 g BSA per 100 mL incubation medium). After gentle stirring the centrifugation step is repeated. Another wash with rinse solution follows. The cells are pooled and their volume is estimated with a graduated cylinder. The adipocytes are diluted in twice their volume of assay buffer (incubation medium (120 mL), BSA (1.2 g), pyruvic acid (13 mg)).
The assay is performed in 20 mL plastic scintillation vials and the total assay volume is 4.2 ml. Assay buffer (2.5 mL), diluted adipocytes (1.5 mL), and a solution of the compound to be tested (12.3 μL) adenosine agonist (12.3 μL; varying concentration) is incubated in the environmental shaker for 15 minutes, then the reaction is started with norepinephrine solution (41.2 μL) (10 nM, in a carrier solution containing water (100 mL), BSA (4 mg), and 0.1 M EDTA (20 μL))and adenosine deaminase (1 μg/ml, 41.2 μL). After sixty minutes in the shaker the reaction is terminated by putting the vials on ice. […] The hard lipid layer is removed by aspiration and the aqueous layer is assayed for glycerol (400 μL of sample). The positive control is done in the absence of any adenosine agonist, substituting water in place of the solution to be tested.

[7] = system: A1 and A2 receptors; settings: selectivity, background section; cited from earlier work
[8] = system: A2 receptor; settings: background section; cited from earlier work
[9] = 50% reduction in tension of rings contracted with 3 μM PGF2a, read-out: Vasorelaxation in Swine Coronary Artery/IC50
[10] = Sus scrofa, read-out: Vasorelaxation in Swine Coronary Artery/IC50 (μM)

T1 sequence (P30543 whole entry): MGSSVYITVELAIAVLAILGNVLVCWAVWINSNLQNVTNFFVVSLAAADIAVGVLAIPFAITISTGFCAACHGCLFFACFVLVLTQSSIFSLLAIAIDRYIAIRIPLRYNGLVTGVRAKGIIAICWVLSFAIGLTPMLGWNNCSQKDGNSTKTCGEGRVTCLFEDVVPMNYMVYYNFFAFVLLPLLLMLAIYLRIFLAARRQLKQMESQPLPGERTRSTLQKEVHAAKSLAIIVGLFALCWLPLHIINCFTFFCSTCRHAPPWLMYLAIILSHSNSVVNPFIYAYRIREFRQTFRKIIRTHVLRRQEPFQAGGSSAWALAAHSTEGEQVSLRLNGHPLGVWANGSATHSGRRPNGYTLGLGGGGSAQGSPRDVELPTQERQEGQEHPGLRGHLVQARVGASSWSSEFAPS

Structure (SMILES) | IC50 [1, 9] [µM] | Anesthetized Rat HR/ED25 [3] [mg/kg] | Anesthetized Rat MAP/ED25 [3] [mg/kg] | IC50 [4] [nM] | IC50 [1, 10] [µM] | melting point [°C] | IC50 [5] [nM] | other results
CCNC(=O)C1CC(n2cnc3c(NCCNc4nc5ccccc5s4)ncnc32)C(O)C1O (racemic) [Example 29, (±)-N^6-[2-(2′-aminobenzothia-zoly)ethyl]carbocyclic adenosine-5′-N-ethyl carboxamide] | 22 | 0.031 | 0.016 |  |  |  |  | SHR HR/% ([2]; single oral dose 5 mg/kg): 12 (D) %; SHR MAP/% ([2]; single oral dose 5 mg/kg): 18 (D) %
CCNC(=O)[C@H]1C[C@@H](n2cnc3c(N[C@H](C)Cc4cccs4)ccnc32)[C@H](O)[C@@H]1O [Example 40, [1S-[1a,2b,3b,4a(S*)]]-4-[7-[[2-(2-thienyl)-1-methylethyl]amino]-3H-imidazo[4,5-b]pyridin-3-yl]-N-ethyl-2,3-dihydroxycyclopentane-carboxamide] |  |  |  | 68.8 | 283 | 155 to 160 | 9.3 | 
CCNC(=O)[C@H]1C[C@@H](n2cnc3c(NC(Cc4cccs4)C(C)C)ccnc32)[C@H](O)[C@@H]1O (stereo partly drawn) [Example 38, [1S-[1a,2b,3b,4a]]-4-[7-[[2-(2-thienyl)-1-isopropylethyl]amino]-3H-imidazo[4,5-b]pyridin-3-yl]-N-ethyl-2,3-dihydroxycyclopentanecarboxamide] |  |  |  | 55.5 | 0.47 | 75 to 85 | 5.7 | 
CCNC(=O)C1CC(n2cnc3c(N[C@H](C)Cc4ccc(Cl)s4)ncnc32)C(O)C1O (single isomer, unassigned; (-)) [Example 6] | 0.021 |  |  | 12.9 |  |  | 2.69 | SHR HR/% ([2]; single oral dose 1 mg/kg): 7 (I) %; SHR MAP/% ([2]; single oral dose 1 mg/kg): 18 (D) %; EC50 [6]: 0.76 nM
Nc1nc(Nc2ccccc2)nc2c1ncn2[C@@H]1O[C@H](CO)[C@@H](O)[C@H]1O [CV-1808] |  |  |  |  |  |  |  | A2/A1 ratio [7]: 0.19; fold less potent than NECA in affinity for the A2 receptor [8]: 10 fold
OC[C@H]1O[C@@H](n2cnc3c(N[C@@H]4CC=CC[C@H]4c4cccs4)ncnc32)[C@H](O)[C@@H]1O (relative stereo) [Example 4, N6-[trans-2-(thiophen-2-yl)cyclohex-4-en-yl]adenosine] |  | 0.019 | 0.013 | 55 | 0.73 | 105 to 110 | 1.66 | SHR HR/% ([2]; single oral dose 5 mg/kg): 20 (D) %; SHR MAP/% ([2]; single oral dose 5 mg/kg): 28 (D) %
CCNC(=O)C1CC(n2cnc3c(NCCc4cccs4)ncnc32)C(O)C1O (single isomer, unassigned; (-)) [Example 26, (−)-N^6-[(thiophen-2″-yl)ethan-2-yl]carbocyclic adenosine-5′-N-ethyl carboxamide] | 0.082 | >0.03 | 0.004 | 63.1 |  |  | 87.1 | SHR HR/% ([2]; single oral dose 2.5 mg/kg): 3 (I) %; SHR MAP/% ([2]; single oral dose 2.5 mg/kg): 41 (D) %; % Inhibition of glycerol production, 1 μM ([6]; 1 μM compound versus positive control): 96%; EC50 [6]: 89 nM
CO[C@@H]1[C@H](O)[C@@H](CO)O[C@H]1n1cnc2c(N[C@@H]3CC=CC[C@H]3c3cccs3)ncnc21 (relative stereo) [Example 49, N^6-[trans-5-(2-thienyl)cyclohex-1-en-4-yl]-2′-O-methyladenosine] |  |  |  | 2880 | 9.81 |  | 69 | EC50 ([6]; Adipocyte): 18.6 nM
